Assay results taken from PMC5013724 (Biochemistry, 2016).
≈ marks a conversion by molar mass, not a printed value. Entries after “also recorded” stand apart in the source; their conditions may differ. Like-named read-outs stand apart in the source and are kept apart here.

Assays:
[1] = biological target: wild-type PR; conditions: read-out: Inhibition of PR Ki, published sources, similar values from different sources averaged, ref [48]–[50],[30]; cited from earlier work
[2] = biological target: TFR-PR^S17 precursor, p6pol/PR^S17 site (Human immunodeficiency virus type 1, UniProt P12497, E523D/G536V/I542V/L578M/M524I/M534L/N525D/V570S, form not given); format: biochemical, HIV-1; conditions: for Autoprocessing in the presence of inhibitor / Inhibition of the p6pol/PR site: 60 min; for Inhibition of autoprocessing of TFR-PR^S17, initial screening: after 60 min, overall autoprocessing
[3] = test system: TFR-PR^S17 precursor, p6pol/PR^S17 site; format: biochemical, HIV-1; conditions: p6pol/PR^S17 site
[4] = biological target: PR20; conditions: read-out: Ki for PR20; ref [34]; cited from earlier work
[5] = test system: mature PR^S17
[6] = test system: mature PR^S17; format: biochemical, HIV-1; conditions: Ki for PR^S17 (kinetics) / Ki for PR
[7] = physchem; conditions: pH 5, aqueous buffer
[8] = biological target: TFR-PR^S17 precursor, TFP/p6pol site (Human immunodeficiency virus type 1, UniProt P12497, E523D/G536V/I542V/L578M/M524I/M534L/N525D/V570S, form not given); format: biochemical, HIV-1; conditions: 60 min
[9] = test system: TFR-PR20; conditions: up to 150 μM inhibitor, expressed in E. coli; ref [16]; cited from earlier work
[10] = test system: wild type TFR-PR precursor; conditions: read-out: IC50 for inhibition of autoprocessing of the wild type precursor; during expression in E. coli; ref [16]; cited from earlier work
[11] = inhibitor 70 μM (limit of solubility)

## CC(C)CN(C[C@@H](O)[C@H](Cc1ccccc1)NC(=O)O[C@H]1CCOC1)S(=O)(=O)c1ccc(N)cc1 [APV, amprenavir]
[1]
  Ki: 0.2 nM
[2]; inhibitor 5 μM
  Autoprocessing in the presence of inhibitor: complete autoprocessing
[2]; inhibitor 50 μM
  Inhibition of autoprocessing of TFR-PR^S17, initial screening: almost complete inhibition
[3]
  Difference in inhibition [autoprocessing, IC50/mature PR^S17, Ki]: 682
[4]
  Ki: ~178 nM
[5]
  Fold higher affinity for PR^S17 relative to PR20: 16 fold
[5]; Ki for PR^S17 (ITC) / Ki for PR
  Relative resistance (PR^S17/PR): 55

## COC(=O)N[C@H](C(=O)N[C@@H](Cc1ccccc1)[C@@H](O)CN(Cc1ccc(-c2ccccn2)cc1)NC(=O)[C@@H](NC(=O)OC)C(C)(C)C)C(C)(C)C [ATV, atazanavir]
[1]
  Ki: 0.035 nM
[2]; inhibitor 10 μM
  Autoprocessing in the presence of inhibitor: complete autoprocessing
[3]
  Difference in inhibition [autoprocessing, IC50/mature PR^S17, Ki]: 214
[6]
  Relative resistance (PR^S17/PR): 2000
[7]
  solubility: 42 µM (≈ 29.6 µg/mL)

## CC(C)(C)NC(=O)[C@@H]1CN(Cc2cccnc2)CCN1C[C@@H](O)C[C@@H](Cc1ccccc1)C(=O)N[C@H]1c2ccccc2C[C@H]1O [IDV, indinavir]
[1]
  Ki: 0.25 nM
[8]; inhibitor 50 μM
  Inhibition of the TFP/p6pol site: insignificant inhibition
[2]; inhibitor 50 μM
  Inhibition of the p6pol/PR site: ~ 50%
  Inhibition of autoprocessing of TFR-PR^S17, initial screening: partial inhibition

## CC(C)(C)NC(=O)[C@@H]1C[C@@H]2CCCC[C@@H]2CN1C[C@@H](O)[C@H](Cc1ccccc1)NC(=O)[C@H](CC(N)=O)NC(=O)c1ccc2ccccc2n1 [SQV, saquinavir]
[9]
  Inhibition of autoprocessing of the PR20 precursor: no inhibition; also recorded: not inhibited
[1]
  Ki: 0.39 nM
[10]
  IC50: 1000 to 2000 nM
[2]; inhibitor 50 μM
  Inhibition of autoprocessing of TFR-PR^S17, initial screening: almost no inhibition

## CC(C)c1nc(CN(C)C(=O)N[C@H](C(=O)N[C@@H](Cc2ccccc2)C[C@H](O)[C@H](Cc2ccccc2)NC(=O)OCc2cncs2)C(C)C)cs1 [RTV, ritonavir]
[2]; inhibitor 50 μM
  Inhibition of autoprocessing of TFR-PR^S17, initial screening: almost no inhibition

## Cc1c(O)cccc1C(=O)N[C@@H](CSc1ccccc1)[C@H](O)CN1C[C@H]2CCCC[C@H]2C[C@H]1C(=O)NC(C)(C)C [NFV, nelfinavir]
[1]
  Ki: 0.36 nM
[3]
  Difference in inhibition [autoprocessing, IC50/mature PR^S17, Ki]: >7.2
[6]
  Relative resistance (PR^S17/PR): 16300
[7]
  solubility: 42 µM (≈ 23.8 µg/mL)

## CC(C)CN(C[C@@H](O)[C@H](Cc1ccccc1)NC(=O)O[C@H]1CO[C@H]2OCC[C@H]21)S(=O)(=O)c1ccc(N)cc1 [DRV, darunavir]
[9]
  Inhibition of autoprocessing of the PR20 precursor: no inhibition; also recorded: not inhibited
[1]
  Ki: 0.005 nM
[10]
  IC50: 1000 to 2000 nM
[2]; inhibitor 50 μM
  Inhibition of autoprocessing of TFR-PR^S17, initial screening: almost complete inhibition

## Cc1cccc(C)c1OCC(=O)N[C@@H](Cc1ccccc1)[C@@H](O)C[C@H](Cc1ccccc1)NC(=O)[C@H](C(C)C)N1CCCNC1=O [LPV, lopinavir]
[1]
  Ki: 0.02 nM
[8]; [11]
  Inhibition of the TFP/p6pol site: insignificant inhibition
[2]; inhibitor 50 μM
  Inhibition of autoprocessing of TFR-PR^S17, initial screening: almost no inhibition
[2]; [11]
  Inhibition of the p6pol/PR site: ~ 50%
[7]
  solubility: 70 µM (≈ 44 µg/mL)
